In brackets after ≈: the same amount, converted by molar mass. Several values for one entry are separate records, joined by “and”; a condition that tells them apart may be missing. Identical values can stand only once. Like-named read-outs stand apart in the source and are kept apart here.
Key:
BT-474 cells = assay: In vitro cytotoxicity, SRB assay, 72 h dose-response; assay type: cell-based; details: Homo sapiens
Source text: (§1) Nature Protocols, 1, 1112-1 116.

HCC-1954 cells = assay: as above; assay type: cell-based; details: Homo sapiens, HCC1954, 72 h
Source text: as §1

SK-OV-3 cells = assay: as above; assay type: cell-based; details: Homo sapiens
Source text: as §1

SK-BR-3 cells = assay: as above; assay type: cell-based; details: Homo sapiens, SK-BR-3, 72 h
Source text: All tumor cell lines used in this study were obtained from the American Type Culture Collection (ATCC), unless otherwise indicated; BT-474 (ATCC HTB-20, Breast Ductal Carcinoma), SK-BR-3 (ATCC HTB-30, Breast Adenocarcinoma) and HCC-1954 (ATCC CRL-2338, Breast Ductal Carcinoma), all HER2+; MDA-MB-231 (ATCC HTB-26, Breast Adenocarcinoma) and MCF-7 (ATCC HTB-22 Breast Adenocarcinoma, pleural effusion), all HER2-; SK-OV-3 (ATCC HTB-77, Ovary Adenocarcinoma), HER2+; NB-4 (Acute Promyelocytic Leukemia, APL, CD13+, M. Lanotte et al. (1991) NB4, a maturation inducible cell line with t(15;17) marker isolated from a human acute promyelocytic leukemia (M3). […] Cells were maintained at 37° C., 5% CO 2 and 95% humidity in Dulbecco's Modified Eagle's Medium (DMEM) (for MCF and MDA-MB-231 cells), RPMI-1640 (for SK-BR-3, HCC-1954, NB-4, U937, Raji, RPMI-8226, Karpas-299, MOLT-4, Raji-clone #10 and Raji-clone #18 cells), RPMI-1640+1% ITS (for BT-474 cells) or McCOyS (for SK-OV-3 cells), all media supplemented with 10% Fetal Calf Serum (FCS) and 100 units/mL penicillin and streptomycin.
For adherent cells: A colorimetric assay using sulforhodamine B (SRB) was adapted for quantitative measurement of cell growth and cytotoxicity, as described in V. Vichai and K. Kirtikara (2006) Sulforhodamine B colorimetric assay for cytotoxicity screening. […] Briefly, cells were seeded in 96-well microtiter plates and allowed to stand for 24 hours in drug-free medium before treatment with vehicle alone or the indicated compounds for 72 hours. For quantification, cells were washed twice with phosphate buffered saline (PBS), fixed for 15 min in 1% glutaraldehyde solution, rinsed twice with PBS, stained in 0.4% SRB-1% acetic acid solution for 30 min, rinsed several times with 1% acetic acid solution and air-dried. SRB was then extracted in 10 mM trizma base solution and the optical density measured at 490 nm in a microplate spectrophotometer. Cell survival was expressed as percentage of control, untreated cell survival.

[1] = test system: BT-474, HCC-1954, SK-BR-3, MDA-MB-231, MCF-7 and SK-OV-3 cells; assay: In vitro cytotoxicity, whole cell panel of Bioactivity Example 1; assay type: cell-based; details: Homo sapiens
Source text: (§2) All tumor cell lines used in this study were obtained from the American Type Culture Collection (ATCC), unless otherwise indicated; BT-474 (ATCC HTB-20, Breast Ductal Carcinoma), SK-BR-3 (ATCC HTB-30, Breast Adenocarcinoma) and HCC-1954 (ATCC CRL-2338, Breast Ductal Carcinoma), all HER2+; MDA-MB-231 (ATCC HTB-26, Breast Adenocarcinoma) and MCF-7 (ATCC HTB-22 Breast Adenocarcinoma, pleural effusion), all HER2-; SK-OV-3 (ATCC HTB-77, Ovary Adenocarcinoma), HER2+; NB-4 (Acute Promyelocytic Leukemia, APL, CD13+, M. Lanotte et al. (1991) NB4, a maturation inducible cell line with t(15;17) marker isolated from a human acute promyelocytic leukemia (M3). Blood 77, 1080-1086), (CD13+) and U937 (ATCC CRL-1 593.2, Histiocytic Lymphoma, CD13+ and CD4+); Raji (ATCC CCL-86, Burkitt's Lymphoma) (CD13−, CD20+, CD5−, and CD4−); RPMI-8226 (ATCC CRM-CCL-155, Multiple Myeloma) (CD13−, CD20−, CD5− and CD4−); Karpas-299 (DSMZ ACC-31, Non-Hodgkin's Lymphoma) (CD20−, CD5+, and CD4+); MOLT-4 (ATCC CRL-1 582, Acute Lymphoblastic Leukemia, CD5+). In addition, the two Raji cell (ATCC CCL-86, Burkitt's Lymphoma) clones used in this study Raji-clone #10 (high CD5 expression) and Raji-clone18 (null CD5 expression), were provided by Dr. Juan M. Zapata (Instituto de Investigaciones Biomedicas “Alberto Sols”, CSIC-UAM, Madrid, Spain). Cells were maintained at 37° C., 5% CO 2 and 95% humidity in Dulbecco's Modified Eagle's Medium (DMEM) (for MCF and MDA-MB-231 cells), RPMI-1640 (for SK-BR-3, HCC-1954, NB-4, U937, Raji, RPMI-8226, Karpas-299, MOLT-4, Raji-clone #10 and Raji-clone #18 cells), RPMI-1640+1% ITS (for BT-474 cells) or McCOyS (for SK-OV-3 cells), all media supplemented with 10% Fetal Calf Serum (FCS) and 100 units/mL penicillin and streptomycin.
For adherent cells: A colorimetric assay using sulforhodamine B (SRB) was adapted for quantitative measurement of cell growth and cytotoxicity, as described in V. Vichai and K. Kirtikara (2006) Sulforhodamine B colorimetric assay for cytotoxicity screening. Nature Protocols, 1, 1112-1 116. Briefly, cells were seeded in 96-well microtiter plates and allowed to stand for 24 hours in drug-free medium before treatment with vehicle alone or the indicated compounds for 72 hours. For quantification, cells were washed twice with phosphate buffered saline (PBS), fixed for 15 min in 1% glutaraldehyde solution, rinsed twice with PBS, stained in 0.4% SRB-1% acetic acid solution for 30 min, rinsed several times with 1% acetic acid solution and air-dried. SRB was then extracted in 10 mM trizma base solution and the optical density measured at 490 nm in a microplate spectrophotometer. Cell survival was expressed as percentage of control, untreated cell survival. […]

[2] = test system: Raji, RPMI-8226 and Karpas-299 cells; assay: In vitro cytotoxicity, whole CD20 cell panel; details: Homo sapiens
Source text: as §2
For suspension cells: A standard metabolic assay using MTT (3-(4,5-Dimethylthiazol-2-yl)-2,5-diphenyltetrazolium bromide) was adapted for quantitative measurement of cell growth and cytotoxicity, as described in T. Mosmann (1983) Rapid colorimetric assay for cellular growth and survival: Application to proliferation and cytotoxicity assays. J. Immunol. Meth., 65, 55-63. Briefly, MTT solution was added to the cell cultures at a final concentration of 0.5 mg/mL, and incubated for 1 to 4 hours at 37° C. until formazan crystals are formed. Culture medium is carefully removed from the cell cultures and formazan crystals resuspended in 100 μl DMSO. After mixing to assure solubilization, the quantity of formazan (presumably directly proportional to the number of viable cells) is measured by recording changes in absorbance at 570 nm using a plate reading spectrophotometer. Cell survival was expressed as percentage of control, untreated cell survival.
(§3) The IC50 value refers to the concentration of compound inducing a 50% of cell death as compared to the control cell survival.
The in vitro cytotoxic activity of ADC12 along with the parent cytotoxic Compounds 1, 4, and 40, was evaluated was assayed against different human cancer cell lines expressing or not the CD20 antigen, including Raji (CD20 positive cells); RPMI-8226 and Karpas-299 (CD20 negative cells). Standard dose-response (DR) curves for 72 hours were performed.

[3] = test system: Raji cell clones #10 (high CD5) and #18 (null CD5); assay: In vitro cytotoxicity, the two Raji cell clones; assay type: cell-based, human; details: from mean IC50
Method: J. Immunol. Meth., 65, 55-63.
[…] dose-response (DR) curves for 72 hours were performed.

Raji cells = assay: In vitro cytotoxicity, MTT assay, 72 h dose-response; assay type: cell-based, human; details: CD13−, CD20+, CD5−, CD4−
Method: Briefly, MTT solution was added to the cell cultures at a final concentration of 0.5 mg/mL, and incubated for 1 to 4 hours at 37° C. until formazan crystals are formed. Culture medium is carefully removed from the cell cultures and formazan crystals resuspended in 100 μl DMSO. […] Cell survival was expressed as percentage of control, untreated cell survival.

[4] = test system: HCC-1954, SK-BR-3, MDA-MB-231 and MCF-7 cells; assay: In vitro cytotoxicity, whole breast cancer cell panel
Source text: as §2
For adherent cells: A colorimetric assay using sulforhodamine B (SRB) was adapted for quantitative measurement of cell growth and cytotoxicity, as described in V. Vichai and K. Kirtikara (2006) Sulforhodamine B colorimetric assay for cytotoxicity screening. Nature Protocols, 1, 1112-1 116. Briefly, cells were seeded in 96-well microtiter plates and allowed to stand for 24 hours in drug-free medium before treatment with vehicle alone or the indicated compounds for 72 hours. For quantification, cells were washed twice with phosphate buffered saline (PBS), fixed for 15 min in 1% glutaraldehyde solution, rinsed twice with PBS, stained in 0.4% SRB-1% acetic acid solution for 30 min, rinsed several times with 1% acetic acid solution and air-dried. SRB was then extracted in 10 mM trizma base solution and the optical density measured at 490 nm in a microplate spectrophotometer. Cell survival was expressed as percentage of control, untreated cell survival.
as §3
Standard dose-response (DR) curves for 72 hours were performed.

[5] = read-out: mean IC50 value across the whole cell panel
[6] = read-out: IC50 values across the different cell lines tested (range)

COC1=CC[C@@H]([C@@H](C)/C=C(C)/C=C\C=C/C(=O)N[C@H](C(=O)N/C=C\C[C@H](C/C=C(\C)Cl)OC(=O)NCCCNC(=O)CCCCCN2C(=O)C=CC2=O)C(C)(C)C)OC1=O [Compound 1]
IC50 (BT-474 cells; BT-474, 72 h): 0.0064 µg/mL and 7.47 nM | IC50 (HCC-1954 cells; HER2+, 72 h, read-out: IC50): 0.00096 µg/mL and 1.12 nM | IC50 (SK-OV-3 cells; SK-OV-3, 72 h): 0.0057 µg/mL and 6.66 nM | IC50 (SK-BR-3 cells; HER2+, 72 h, read-out: IC50): 0.00089 µg/mL and 1.04 nM | IC50 ([1]; read-out: IC50 values along the different cell lines tested (range)): 0.00089 µg/mL to 0.0064 µg/mL and 1.04 nM to 7.47 nM | IC50 [1, 5]: 0.00341 µg/mL and 3.98 nM | IC50 [2, 6]: 0.0016 µg/mL to 0.0028 µg/mL and 1.9 nM to 3.3 nM | IC50 [2, 5]: 0.0021 µg/mL and 2.5 nM | more active in CD5 overexpressing cells (clone #10) than in CD5 null cells (clone #18) [3]: around 1 log

COC1=CC[C@@H]([C@@H](C)/C=C(C)/C=C\C=C/C(=O)N[C@H](C(=O)N/C=C\C[C@H](C/C=C(\C)Cl)OC(=O)NCCCN)C(C)(C)C)OC1=O [Compound 4]
IC50 (BT-474 cells; BT-474, HER2+, 72 h, read-out: IC50): 0.00174 µg/mL and 2.62 nM | IC50 (SK-OV-3 cells; SK-OV-3, ovary, HER2+, 72 h, read-out: IC50): 0.00073 µg/mL and 1.1 nM | IC50 (Raji cells): 0.00141 µg/mL | IC50 (Raji cells; read-out: IC50): 2.12 nM | IC50 (Raji cells; Homo sapiens, Raji, read-out: IC50): 0.00265 µg/mL and 4 nM | IC50 ([1]; six cell lines, read-out: mean IC50 value across the whole cell panel): 0.000569 µg/mL and 0.857 nM | IC50 ([1]; six cell lines, two independent experiments, read-out: IC50 values along the different cell lines tested (range)): 0.089 to 1.7 ng/mL (≈ 0.134 to 2.56 nM) | IC50 [2, 6]: 0.00057 µg/mL to 0.0014 µg/mL and 0.86 nM to 2.1 nM | IC50 [2, 5]: 0.00097 µg/mL and 1.5 nM | IC50 ([4]; Homo sapiens, read-out: mean IC50 value across the whole cell panel, four breast cell lines): 0.000197 µg/mL and 0.296 nM | mean IC50 value across the whole cell panel ([4]; four breast cell lines): 0.33 ng/mL | IC50 ([4]; read-out: mean IC50 value across the whole cell panel, four breast cell lines): 0.498 nM

COC1=CC[C@@H]([C@@H](C)/C=C(C)/C=C\C=C/C(=O)N[C@H](C(=O)N/C=C\C[C@H](C/C=C(\C)Cl)OC(N)=O)C(C)(C)C)OC1=O [Compound 40]
IC50 (HCC-1954 cells): 7.1e-05 µg/mL and 0.116 nM | IC50 (SK-BR-3 cells): 4.9e-05 µg/mL and 0.081 nM | IC50 (Raji cells): 0.000115 µg/mL and 0.000285 µg/mL | IC50 (Raji cells; read-out: IC50): 0.19 nM and 0.47 nM | IC50 [2, 6]: 8.6e-05 µg/mL to 0.00011 µg/mL and 0.14 nM to 0.19 nM | IC50 [2, 5]: 9.6e-05 µg/mL and 0.16 nM | IC50 ([4]; Homo sapiens, read-out: IC50 values along the different cell lines tested (range)): 0.049 to 0.173 ng/mL | IC50 ([4]; Homo sapiens, read-out: mean IC50 value across the whole cell panel): 0.000106 µg/mL and 0.175 nM

From patent publication US12410148B2, “Antibody drug conjugates” (Pharma Mar, S.A., priority 2013, dated 2025)
